The source of these data is ChEMBL document CHEMBL4118166, “Design, synthesis and evaluation of potent and selective inhibitors of mono-(ADP-ribosyl)transferases PARP10 and PARP14” (Bioorg Med Chem Lett, 2018).

pIC50: −log10 of the molar value. Converted amounts (≈) assume the structure as drawn.

Data set [1] in a line: Thermodynamic solubility of the compound in phosphate buffer at pH 7.4 after 24 hrs by HPLC/UV based shake flask method. Type of data set: physicochemical. The conditions noted are these: read-out: Therm_solubility.
A short description of data set [2]: Metabolic stability in mouse liver microsomes assessed as compound remaining level at 5 uM after 2 hrs in presence of G-6-P, G-6-PDH, MgCl2 and NADP+ by LC-MS/MS analysis. The format is ADME, microsome. As to conditions: read-out: Stability. Background: Liver microsomes are vesicles of endoplasmic reticulum, rich in cytochrome P450 enzymes.
Data set [3] is described as follows: Metabolic stability in mouse liver microsomes compound remaining level at 5 uM in absence of co-factors after 2 hrs by LC-MS/MS analysis. The conditions noted are these: read-out: Stability. The format is ADME, microsome.
The target of data set [4] is Protein mono-ADP-ribosyltransferase PARP14 (Homo sapiens) (UniProt Q460N5). As to the kind of experiment: Inhibition of full length recombinant His6-tagged human PARP14 WWA/catalytic domain expressed in Escherichia coli BL21(DE3) at 5 uM preincubated for 15 mins followed by biotinylated NAD+ addition by chemiluminescence assay relative to control.
Protein mono-ADP-ribosyltransferase PARP14 (Homo sapiens), sequence (Q460N5 whole entry, the tested form may be a part): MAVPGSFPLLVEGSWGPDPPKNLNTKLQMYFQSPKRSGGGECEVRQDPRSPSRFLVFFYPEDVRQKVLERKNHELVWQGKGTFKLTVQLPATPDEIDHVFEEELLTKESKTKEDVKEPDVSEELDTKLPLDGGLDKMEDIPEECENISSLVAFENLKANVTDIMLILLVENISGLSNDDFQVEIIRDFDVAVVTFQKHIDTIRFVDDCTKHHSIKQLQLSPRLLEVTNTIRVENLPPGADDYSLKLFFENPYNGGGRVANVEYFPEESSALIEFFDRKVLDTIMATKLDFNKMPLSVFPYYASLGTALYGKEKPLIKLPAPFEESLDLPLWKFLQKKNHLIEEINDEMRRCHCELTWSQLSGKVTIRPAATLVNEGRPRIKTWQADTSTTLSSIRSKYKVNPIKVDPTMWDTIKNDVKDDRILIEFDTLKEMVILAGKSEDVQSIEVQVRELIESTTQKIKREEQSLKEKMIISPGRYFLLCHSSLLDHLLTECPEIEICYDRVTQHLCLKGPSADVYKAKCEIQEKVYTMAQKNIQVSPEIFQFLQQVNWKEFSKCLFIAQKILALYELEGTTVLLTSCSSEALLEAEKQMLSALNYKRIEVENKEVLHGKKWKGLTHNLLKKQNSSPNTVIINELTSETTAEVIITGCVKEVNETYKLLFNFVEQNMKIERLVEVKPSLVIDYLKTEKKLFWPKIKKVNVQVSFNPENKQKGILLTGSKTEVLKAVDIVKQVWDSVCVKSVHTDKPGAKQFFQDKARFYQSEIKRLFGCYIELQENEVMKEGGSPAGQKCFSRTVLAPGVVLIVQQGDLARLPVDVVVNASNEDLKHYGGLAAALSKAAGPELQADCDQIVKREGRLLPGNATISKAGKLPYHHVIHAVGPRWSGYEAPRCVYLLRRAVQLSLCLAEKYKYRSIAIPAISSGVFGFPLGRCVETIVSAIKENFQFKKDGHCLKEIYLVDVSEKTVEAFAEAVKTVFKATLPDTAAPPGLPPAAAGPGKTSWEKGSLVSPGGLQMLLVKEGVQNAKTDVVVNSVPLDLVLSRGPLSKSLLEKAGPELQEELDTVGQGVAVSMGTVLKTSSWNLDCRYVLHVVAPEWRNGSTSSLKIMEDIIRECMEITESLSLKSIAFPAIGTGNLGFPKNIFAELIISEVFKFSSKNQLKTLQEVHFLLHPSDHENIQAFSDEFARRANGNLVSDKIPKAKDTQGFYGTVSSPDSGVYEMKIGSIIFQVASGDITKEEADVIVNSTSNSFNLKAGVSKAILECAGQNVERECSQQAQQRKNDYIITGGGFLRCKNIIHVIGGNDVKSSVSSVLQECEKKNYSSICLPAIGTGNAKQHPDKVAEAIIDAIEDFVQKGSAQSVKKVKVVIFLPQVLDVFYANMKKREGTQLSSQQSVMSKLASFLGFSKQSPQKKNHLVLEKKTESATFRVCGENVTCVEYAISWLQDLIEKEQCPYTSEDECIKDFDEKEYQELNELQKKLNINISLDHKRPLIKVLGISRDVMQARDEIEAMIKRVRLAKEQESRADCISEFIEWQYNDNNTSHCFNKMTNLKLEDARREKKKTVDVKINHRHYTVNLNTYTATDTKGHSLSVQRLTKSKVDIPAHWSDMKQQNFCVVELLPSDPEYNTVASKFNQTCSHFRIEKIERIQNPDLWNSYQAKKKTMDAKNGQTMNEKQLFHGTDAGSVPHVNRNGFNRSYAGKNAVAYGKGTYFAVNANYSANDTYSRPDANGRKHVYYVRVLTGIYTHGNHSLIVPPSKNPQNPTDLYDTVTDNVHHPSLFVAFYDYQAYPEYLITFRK
Data set [5] has as its target T1, Protein mono-ADP-ribosyltransferase PARP10 (Homo sapiens, UniProt Q53GL7).
T1 sequence (Q53GL7 whole entry): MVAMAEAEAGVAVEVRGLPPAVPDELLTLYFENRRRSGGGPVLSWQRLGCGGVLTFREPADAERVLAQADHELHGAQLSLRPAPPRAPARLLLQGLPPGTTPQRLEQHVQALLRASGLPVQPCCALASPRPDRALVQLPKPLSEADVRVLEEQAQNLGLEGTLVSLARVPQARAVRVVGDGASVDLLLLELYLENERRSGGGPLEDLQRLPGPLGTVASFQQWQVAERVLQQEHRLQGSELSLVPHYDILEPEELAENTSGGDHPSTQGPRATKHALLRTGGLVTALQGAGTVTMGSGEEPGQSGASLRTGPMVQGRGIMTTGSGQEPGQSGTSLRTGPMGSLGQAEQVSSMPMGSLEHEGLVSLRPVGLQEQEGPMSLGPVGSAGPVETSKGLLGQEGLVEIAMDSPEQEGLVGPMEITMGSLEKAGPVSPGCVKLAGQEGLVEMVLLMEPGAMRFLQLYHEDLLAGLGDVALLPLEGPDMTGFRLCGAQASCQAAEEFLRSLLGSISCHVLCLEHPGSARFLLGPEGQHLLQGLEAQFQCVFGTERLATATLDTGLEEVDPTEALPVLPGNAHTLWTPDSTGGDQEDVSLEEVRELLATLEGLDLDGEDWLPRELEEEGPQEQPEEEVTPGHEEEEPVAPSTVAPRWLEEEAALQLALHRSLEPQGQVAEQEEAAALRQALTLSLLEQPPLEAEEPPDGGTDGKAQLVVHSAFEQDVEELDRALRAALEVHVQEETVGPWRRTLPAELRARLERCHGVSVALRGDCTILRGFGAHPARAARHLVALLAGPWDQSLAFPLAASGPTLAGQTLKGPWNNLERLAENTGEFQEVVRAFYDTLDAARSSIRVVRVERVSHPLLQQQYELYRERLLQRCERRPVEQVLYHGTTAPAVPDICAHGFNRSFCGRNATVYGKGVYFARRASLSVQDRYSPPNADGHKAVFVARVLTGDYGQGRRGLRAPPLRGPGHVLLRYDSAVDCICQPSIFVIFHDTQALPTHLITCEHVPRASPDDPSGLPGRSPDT
As to the kind of experiment: Inhibition of full length recombinant His6-tagged human PARP10 expressed in Escherichia coli BL21(DE3) preincubated for 15 mins followed by biotinylated NAD+ addition by chemiluminescence assay.

In data set [6] the target is T2, Protein mono-ADP-ribosyltransferase PARP15 (Homo sapiens, UniProt Q460N3).
T2 sequence (Q460N3 whole entry): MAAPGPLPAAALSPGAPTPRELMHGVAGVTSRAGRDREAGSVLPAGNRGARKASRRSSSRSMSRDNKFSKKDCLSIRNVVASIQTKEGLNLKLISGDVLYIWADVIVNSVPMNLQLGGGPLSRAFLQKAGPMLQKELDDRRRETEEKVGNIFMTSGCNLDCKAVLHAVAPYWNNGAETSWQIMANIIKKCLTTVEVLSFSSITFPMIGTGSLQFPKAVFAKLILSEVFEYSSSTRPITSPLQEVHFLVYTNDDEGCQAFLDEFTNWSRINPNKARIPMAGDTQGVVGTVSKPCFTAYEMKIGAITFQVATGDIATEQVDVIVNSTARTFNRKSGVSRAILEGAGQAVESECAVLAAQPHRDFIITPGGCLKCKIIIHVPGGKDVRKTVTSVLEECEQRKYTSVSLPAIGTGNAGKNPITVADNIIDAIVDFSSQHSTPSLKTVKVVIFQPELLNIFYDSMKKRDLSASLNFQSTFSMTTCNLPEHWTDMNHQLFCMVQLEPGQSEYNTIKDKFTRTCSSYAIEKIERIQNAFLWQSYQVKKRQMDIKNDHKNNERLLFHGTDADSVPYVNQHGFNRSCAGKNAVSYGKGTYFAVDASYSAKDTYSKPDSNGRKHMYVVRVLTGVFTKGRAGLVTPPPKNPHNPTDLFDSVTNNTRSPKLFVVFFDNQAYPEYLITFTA
Put plainly: Inhibition of full length recombinant His6-tagged PARP15 catalytic domain (unknown origin) expressed in Escherichia coli BL21(DE3) by fluorescence based assay.

`NC(=O)c1ccc(Oc2cccc(C(=O)N3CCC(O)(c4ccc(F)cc4)CC3)c2)cc1`: the solubility thermodynamic at 24 h in data set [1] turned out to be 242 µM (≈ 105 µg/mL). Moreover, the remaining at 2 h, 5 µM in data set [2] is 45.3%; in data set [3] it was 100%.

Consider `CCOC(=O)C1CCN(C(=O)c2cccc(Oc3ccc(C(N)=O)cc3)c2)CC1`, for which the inhibition in data set [4] is 51%. Moreover, in data set [5], the pIC50 was 5.97.

In the case of `NC(=O)c1ccc(Oc2cccc(C(=O)N3CCC(c4ccccc4F)CC3)c2)cc1`, in data set [5], the pIC50 is 6.33.

Turning to `NC(=O)c1ccc(Oc2ccc(C(=O)N3CCC(c4cccc(F)c4)CC3)cc2)cc1`, the pIC50 in data set [5] was 5.91.

Consider `NC(=O)c1ccc(Oc2cccc(C(=O)N3CCN(c4ccc(F)cc4)CC3)c2)cc1`, for which, in data set [1], the solubility thermodynamic at 24 h came to 60 µM (≈ 25.2 µg/mL). The remaining at 2 h, 5 µM turned out to be 39% in data set [2] and 88.1% in data set [3].

With `NC(=O)c1ccc(Oc2cccc(C(=O)N3CCC(O)(c4ccccc4)CC3)c2)cc1`, in data set [5], the negative-log IC50 (pIC50) was 5.82.

With `NC(=O)c1ccc(Oc2cccc(C(=O)N3CCC(c4ccc(F)cc4)CC3)c2)cc1`, the solubility thermodynamic at 24 h in data set [1] amounted to 42 µM (≈ 17.6 µg/mL). In addition, the remaining at 2 h, 5 µM amounted to 16.4% in data set [2] and 91.8% in data set [3].

For `NC(=O)c1ccc(Oc2cccc(C(N)=O)c2)cc1`, in data set [5], the pIC50 is 6.29.

Take `NC(=O)c1ccc(Oc2ccc(C(N)=O)cc2)cc1`: the pIC50 in data set [6] is 5.38.

In the case of `NC(=O)c1ccc(Oc2ccc(C(=O)N3CCC(c4ccc(F)cc4)CC3)cc2)cc1`, the pIC50 in data set [5] is 5.78.

As a reminder, the inhibition is the share of the control response that was lost under treatment. As a reminder, the pIC50 is the IC50 on a negative log10 scale, so that one unit is a factor of ten.
